Measured values published in patent publication US20240148714A1, “Triple Negative Breast Cancer Treatment Method” (Exelixis, Inc., priority 2016, published 2024).
“And” between values parts separate entries of the source, which are not always exact repeats. Identical values can stand only once.

System: metastatic TNBC
Assay: Phase II study of cabozantinib in metastatic TNBC: objective response (RECIST 1.1), clinical benefit, PFS
Assay type: in vivo, human
Experimental: Experimental design: In this single-arm, two-stage phase 2 study, patients with metastatic TNBC with measurable disease by RECIST and up to 3 lines of prior chemotherapy for metastatic disease received cabozantinib 60 mg daily on a 21-day cycle. Patients were restaged 6 weeks following treatment initiation and every 9 weeks thereafter. The primary endpoint was objective response rate (ORR). Predefined secondary endpoints included progression free survival (PFS) and toxicity. Here, we examined cellular biomarkers using flow cytometry in serial blood samples collected at days 0 (baseline/pre-treatment), 8, 22, 43, and 64 of cabozantinib treatment. Mixed effect models were used to evaluate the changes of biomarker levels over time from baseline to day 64. Wilcoxon signed rank test were used to evaluate whether the change of biomarker levels from baseline to day 8 were different by clinical benefit. Adjusted p-values controlling false discovery rate were used to adjust for multiple comparisons.
Study Design and Treatment: As indicated, this was a single-arm, two-stage phase II study assessing the efficacy of cabozantinib monotherapy in patients with mTNBC. Treatment consisted of oral dosing of cabozantinib at 60 mg daily over a 21-day cycle. Patients underwent radiographic restaging at 6 weeks and every 9 weeks thereafter. Patients with complete or partial RECIST responses continued to receive study treatment, whereas those with progressive disease were taken off study. Dose reductions for toxicity occurred if patients experienced grade 3 or 4 neutropenia or thrombocytopenia, or nonhematologic adverse events. From the starting dose of 60 mg daily, doses were reduced as needed to 40 and 20 mg daily. For the purposes of determining the effect of cabozantinib treatment on pain and analgesic medication use, pain was assessed by a participant-reported questionnaire, and daily analgesic medication usage was recorded. These were completed at baseline and during week 3, 6, and every 6 weeks thereafter until the date of the participant's last follow-up visit.
The primary endpoint was the activity of cabozantinib, as defined by objective response rate (ORR) in patients with mTNBC. Predefined secondary endpoints included progression-free survival (PFS), toxicity, and pain. Correlative studies included analysis of MET and phospho-MET expression in archival tumor tissue, and molecular and cellular biomarkers of cabozantinib. Cellular biomarkers were examined using flow cytometry in serial blood samples collected at days 0 (baseline/pre-treatment), 8, 22, 43, and 64 of cabozantinib treatment. Mixed effect models were used to evaluate the changes of biomarker levels over time from baseline to day 64. Wilcoxon signed rank test were used to evaluate whether the change of biomarker levels from baseline to day 8 were different by clinical benefit. Adjusted p-values controlling false discovery rate were used to adjust for multiple comparisons.
Statistical Analysis: This study used Simon optimal two-stage design to control type I error at 10% and have at least 90% power to detect the acceptable response rate. By study design, 13 participants were to be enrolled in the first stage. If there was at least 1 response, accrual was to continue to the second stage, where an additional 22 patients were to be enrolled. If there were at least 4 responses among the 35 total patients, the regimen was to be considered worthy of further study. With a true response rate of 5%, the chance that the regimen would be declared worthy of further study was 10%, and with a true response rate of 20%, the chance that the regimen would be declared worthy of further study was 90%.
Objective response was evaluated by using RECIST1.1. […] Objective response rate was reported with 95% confidence interval (CI) for the two stage designs. PFS and 95% CI were described using Kaplan-Meier methods. […]

COc1cc2nccc(Oc3ccc(NC(=O)C4(C(=O)Nc5ccc(F)cc5)CC4)cc3)c2cc1OC [cabozantinib]
clinical benefit rate (PR+SD) at 15 weeks (60 mg daily, 35 patients): 34%
median PFS (60 mg daily, 35 patients): 2.0 months
objective response rate (ORR) (60 mg daily, 35 patients, as previously reported (ASCO 2015)): 11%
objective response rate (ORR) (60 mg daily, 35 patients, confirmed PR, RECIST 1.1): 9%
time on treatment of individual patients with PR (17 cycles and 8 cycles of protocol therapy): 11.7 months and 6.5 months
Best overall response: Not evaluated due to toxicity (35 patients): 1 (3) n (%)
Best overall response: PD (35 patients): 11 (31) n (%)
Best overall response: PR (35 patients): 3 (9) n (%)
Best overall response: SD (35 patients): 20 (57) n (%)
Best overall response: SD <15 weeks (35 patients): 11 (31) n (%)
Best overall response: SD ≥15 weeks (35 patients): 9 (26) n (%)
median PFS (high baseline sMET (>795 ng/mL median value)): 3.3 months
patients off treatment due to progressive disease (human, in vivo): 91%
patients with clinically progressive disease before protocol specified tumor assessment (included in PD): ^aIncluding 7 patients(20%) with clinically progressive disease before protocol specified tumor assessment.
median PFS (low baseline sMET (<795 ng/mL)): 1.3 months
patients who achieved PR (of 35 patients): 3 patients
